Measured values reported in patent US20150105252A1, “SUBSTITUTED PYRAZOLES AS HERBICIDES” (E I DU PONT DE NEMOURS AND COMPANY, priority 2013, published 2015).

Assays:
[1] = test system: wheat; assay: Test A postemergence; type: in vivo, Triticum aestivum
In short: (§1)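 Seeds were sown in a loam soil–sand blend and given a directed soil spray preemergence; postemergence plants at 2–10 cm, one- to two-leaf stage, were sprayed with compound in non-phytotoxic solvent with surfactant. After about 10 days in a greenhouse, injury was visually rated against untreated controls (0 = no effect, 100 = complete control).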

[2] = test system: corn; assay: Test A preemergence; type: in vivo, Zea mays; conditions: preemergence; for Corn plant response rating (0 to 100 scale): visual injury approx. 10 days after treatment
In short: as §1

[3] = test system: barnyardgrass; assay: Test A postemergence; type: in vivo, Echinochloa crus-galli
In short: as §1

[4] = test system: velvetleaf; assay: Test A preemergence; type: in vivo, Abutilon theophrasti; conditions: preemergence; for Velvetleaf plant response rating (0 to 100 scale): visual injury approx. 10 days after treatment
In short: as §1

[5] = test system: pigweed; assay: Test A preemergence; type: in vivo, Amaranthus retroflexus; conditions: preemergence; for Pigweed plant response rating (0 to 100 scale): visual injury approx. 10 days after treatment
In short: as §1

[6] = test system: sedge, umbrella; assay: Test B flood; type: in vivo, Cyperus difformis; conditions: 250 g ai/ha, visual rating on 0 to 100 scale (0 no effect, 100 complete control), 13 to 15 days
In short: (§2)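 Visual ratings (0 = no effect, 100 = complete control) versus untreated controls were taken 13–15 days after treatment of greenhouse plants. Treatment was added to paddy water held at 3 cm depth on 2-leaf-stage seedlings.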

[7] = test system: crabgrass, large; assay: Test A preemergence; type: in vivo, Digitaria sanguinalis; conditions: preemergence; for Crabgrass, Large plant response rating (0 to 100 scale): visual injury approx. 10 days after treatment
In short: as §1

[8] = test system: foxtail, giant; assay: Test A preemergence; type: in vivo, Setaria faberii; conditions: preemergence; for Foxtail, Giant plant response rating (0 to 100 scale): visual injury approx. 10 days after treatment
In short: as §1

[9] = test system: velvetleaf; assay: Test A postemergence; type: in vivo, Abutilon theophrasti
In short: as §1

[10] = test system: corn; assay: Test A postemergence; type: in vivo, Zea mays
In short: as §1

[11] = test system: morningglory; assay: Test A preemergence; type: in vivo, Ipomoea spp.; conditions: preemergence; for Morningglory plant response rating (0 to 100 scale): visual injury approx. 10 days after treatment
In short: as §1

[12] = test system: ducksalad; assay: Test B flood; type: in vivo, Heteranthera limosa; conditions: 250 g ai/ha, visual rating on 0 to 100 scale (0 no effect, 100 complete control), 13 to 15 days
In short: as §2

[13] = test system: barnyardgrass; assay: Test B flood; type: in vivo, Echinochloa crus-galli; conditions: 250 g ai/ha, visual rating on 0 to 100 scale (0 no effect, 100 complete control), 13 to 15 days
In short: as §2

[14] = test system: pigweed; assay: Test A postemergence; type: in vivo, Amaranthus retroflexus
In short: as §1

[15] = test system: foxtail, giant; assay: Test A postemergence; type: in vivo, Setaria faberii
In short: as §1

[16] = test system: rice; assay: Test B flood; type: in vivo, Oryza sativa; conditions: 250 g ai/ha, visual rating on 0 to 100 scale (0 no effect, 100 complete control), 13 to 15 days
In short: as §2

[17] = test system: wheat; assay: Test A preemergence; type: in vivo, Triticum aestivum; conditions: preemergence; for Wheat plant response rating (0 to 100 scale): visual injury approx. 10 days after treatment
In short: as §1

[18] = test system: morningglory; assay: Test A postemergence; type: in vivo, Ipomoea spp.
In short: as §1

[19] = test system: barnyardgrass; assay: Test A preemergence; type: in vivo, Echinochloa crus-galli; conditions: preemergence
In short: as §1

[20] = test system: crabgrass, large; assay: Test A postemergence; type: in vivo, Digitaria sanguinalis
In short: as §1

[21] = Postemergence, 500 g ai/ha, 0 to 100 scale (0 no effect, 100 complete control)
[22] = postemergence, 125 g ai/ha, about 10 days, visual rating on 0 to 100 scale (0 no effect, 100 complete control)
[23] = 125 g ai/ha, visual injury, 0 to 100 scale, approx. 10 days
[24] = 500 g ai/ha, visual injury after approx. 10 days, 0 to 100 scale (0 no effect, 100 complete control)

SMILES: CCc1cc(C(=O)NC(C)C)nn1Cc1cc(C(F)(F)F)nn1CC [Compound 120]
- Wheat plant response rating [1, 21]: 30
- Wheat plant response rating [1, 22]: 0
- Corn plant response rating [2, 23]: 20
- Corn plant response rating [2, 24]: 50
- Barnyardgrass plant response rating [3, 21]: 90
- Barnyardgrass plant response rating [3, 22]: 30
- Velvetleaf plant response rating [4, 23]: 10
- Velvetleaf plant response rating [4, 24]: 70
- Pigweed plant response rating [5, 23]: 70
- Pigweed plant response rating [5, 24]: 90
- Plant response rating, Sedge, Umbrella [6]: 80
- Crabgrass, Large plant response rating [7, 23]: 100
- Crabgrass, Large plant response rating [7, 24]: 100
- Foxtail, Giant plant response rating [8, 23]: 60
- Foxtail, Giant plant response rating [8, 24]: 90
- Velvetleaf plant response rating [9, 21]: 80
- Velvetleaf plant response rating [9, 22]: 30
- Corn plant response rating [10, 21]: 60
- Corn plant response rating [10, 22]: 30
- Morningglory plant response rating [11, 23]: 70
- Morningglory plant response rating [11, 24]: 100
- Plant response rating, Ducksalad [12]: 40
- Plant response rating, Barnyardgrass [13]: 0
- Pigweed plant response rating [14, 21]: 80
- Pigweed plant response rating [14, 22]: 50
- Foxtail, Giant plant response rating [15, 21]: 70
- Foxtail, Giant plant response rating [15, 22]: 30
- Plant response rating, Rice [16]: 0
- Wheat plant response rating [17, 23]: 0
- Wheat plant response rating [17, 24]: 40
- Morningglory plant response rating [18, 21]: 100
- Morningglory plant response rating [18, 22]: 80
- Barnyardgrass plant response rating [19, 23]: 20
- Barnyardgrass plant response rating [19, 24]: 100
- Crabgrass, Large plant response rating [20, 21]: 80
- Crabgrass, Large plant response rating [20, 22]: 30

SMILES: CCc1cc(C(=O)NCC#N)nn1Cc1ccnc(C(F)(F)F)c1 [Compound 147]
- Wheat plant response rating [1, 21]: 0
- Wheat plant response rating [1, 22]: 0
- Corn plant response rating (0 to 100 scale) ([2]; 125 g ai/ha): 0
- Corn plant response rating [2, 24]: 0
- Barnyardgrass plant response rating [3, 21]: 30
- Barnyardgrass plant response rating [3, 22]: 10
- Velvetleaf plant response rating (0 to 100 scale) ([4]; 125 g ai/ha): 0
- Velvetleaf plant response rating [4, 24]: 30
- Pigweed plant response rating (0 to 100 scale) ([5]; 125 g ai/ha): 90
- Pigweed plant response rating [5, 24]: 100
- Plant response rating, Sedge, Umbrella [6]: 0
- Crabgrass, Large plant response rating (0 to 100 scale) ([7]; 125 g ai/ha): 50
- Crabgrass, Large plant response rating [7, 24]: 100
- Foxtail, Giant plant response rating (0 to 100 scale) ([8]; 125 g ai/ha): 10
- Foxtail, Giant plant response rating [8, 24]: 80
- Velvetleaf plant response rating [9, 21]: 50
- Velvetleaf plant response rating [9, 22]: 30
- Corn plant response rating [10, 21]: 10
- Corn plant response rating [10, 22]: 0
- Morningglory plant response rating (0 to 100 scale) ([11]; 125 g ai/ha): 20
- Morningglory plant response rating [11, 24]: 70
- Plant response rating, Ducksalad [12]: 0
- Plant response rating, Barnyardgrass [13]: 0
- Pigweed plant response rating [14, 21]: 90
- Pigweed plant response rating [14, 22]: 60
- Foxtail, Giant plant response rating [15, 21]: 30
- Foxtail, Giant plant response rating [15, 22]: 10
- Plant response rating, Rice [16]: 0
- Wheat plant response rating (0 to 100 scale) ([17]; 125 g ai/ha): 0
- Wheat plant response rating [17, 24]: 0
- Morningglory plant response rating [18, 21]: 70
- Morningglory plant response rating [18, 22]: 30
- Barnyardgrass plant response rating [19, 23]: 0
- Barnyardgrass plant response rating [19, 24]: 30
- Crabgrass, Large plant response rating [20, 21]: 40
- Crabgrass, Large plant response rating [20, 22]: 10

SMILES: CCCCc1cc(C(=O)NOCC)nn1Cc1ccnc(C(F)(F)F)c1 [Compound 152]
- Wheat plant response rating [1, 21]: 0
- Wheat plant response rating [1, 22]: 0
- Corn plant response rating (0 to 100 scale) ([2]; 125 g ai/ha): 0
- Corn plant response rating [2, 24]: 0
- Barnyardgrass plant response rating [3, 21]: 50
- Barnyardgrass plant response rating [3, 22]: 10
- Velvetleaf plant response rating (0 to 100 scale) ([4]; 125 g ai/ha): 0
- Velvetleaf plant response rating [4, 24]: 20
- Pigweed plant response rating (0 to 100 scale) ([5]; 125 g ai/ha): 100
- Pigweed plant response rating [5, 24]: 100
- Plant response rating, Sedge, Umbrella [6]: 0
- Crabgrass, Large plant response rating (0 to 100 scale) ([7]; 125 g ai/ha): 40
- Crabgrass, Large plant response rating [7, 24]: 80
- Foxtail, Giant plant response rating (0 to 100 scale) ([8]; 125 g ai/ha): 10
- Foxtail, Giant plant response rating [8, 24]: 60
- Velvetleaf plant response rating [9, 21]: 60
- Velvetleaf plant response rating [9, 22]: 20
- Corn plant response rating [10, 21]: 30
- Corn plant response rating [10, 22]: 10
- Morningglory plant response rating (0 to 100 scale) ([11]; 125 g ai/ha): 0
- Morningglory plant response rating [11, 24]: 20
- Plant response rating, Ducksalad [12]: 0
- Plant response rating, Barnyardgrass [13]: 0
- Pigweed plant response rating [14, 21]: 80
- Pigweed plant response rating [14, 22]: 60
- Foxtail, Giant plant response rating [15, 21]: 40
- Foxtail, Giant plant response rating [15, 22]: 10
- Plant response rating, Rice [16]: 0
- Wheat plant response rating (0 to 100 scale) ([17]; 125 g ai/ha): 0
- Wheat plant response rating [17, 24]: 0
- Morningglory plant response rating [18, 21]: 60
- Morningglory plant response rating [18, 22]: 40
- Barnyardgrass plant response rating [19, 23]: 0
- Barnyardgrass plant response rating [19, 24]: 60
- Crabgrass, Large plant response rating [20, 21]: 60
- Crabgrass, Large plant response rating [20, 22]: 10
